According to patent US20260042753A1 (Merck Patent GmbH, priority 2019, published 2026):
Where two headings read alike, the source gives them in different places.

Legend:
c-Kit(V654A) = c-Kit(V654A) (Homo sapiens, UniProt P10721, V654A); assay: c-Kit(V654A) assay; format: biochemical
In short: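 Radiometric filter-binding read-out: after 3% phosphoric acid stop, peptide-incorporated 33P on filtermat scintillation-counted. Enzyme: human c-Kit V654A, residues 544–end, N-terminal GST fusion.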

[1] = biological target: mutant cKIT (560-576 and V654A) in GIST430/654 cell line (Homo sapiens (Human), UniProt P10721, DEL560-576/V654A); assay: Cellular testing of cKIT mutant inhibitors: phospho-Y307-cKIT Luminex assay in GIST430/654 cells; format: cell-based; details: read-out: GIST 430/654 IC50
In short: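 GIST430/654 cells carrying constitutively active cKIT (Δ560-576/V654A) were grown with 100 nM imatinib, then treated with serially diluted compound for 45 min. Lysates were captured on anti-total-cKIT Luminex beads overnight at 4 °C and probed for phospho-Y307-cKIT. IC50 was fitted from percent of 0.3% DMSO control.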

[2] = Table 1, cKIT autophosphorylation, compounds 45 min
[3] = Table 2, corresponding triazole derivatives

Chain of mutant cKIT (560-576 and V654A) in GIST430/654 cell line (P10721 other isoform, or with tags, fused parts or gaps V654A/del 1-25/del 560-576 limits assumed): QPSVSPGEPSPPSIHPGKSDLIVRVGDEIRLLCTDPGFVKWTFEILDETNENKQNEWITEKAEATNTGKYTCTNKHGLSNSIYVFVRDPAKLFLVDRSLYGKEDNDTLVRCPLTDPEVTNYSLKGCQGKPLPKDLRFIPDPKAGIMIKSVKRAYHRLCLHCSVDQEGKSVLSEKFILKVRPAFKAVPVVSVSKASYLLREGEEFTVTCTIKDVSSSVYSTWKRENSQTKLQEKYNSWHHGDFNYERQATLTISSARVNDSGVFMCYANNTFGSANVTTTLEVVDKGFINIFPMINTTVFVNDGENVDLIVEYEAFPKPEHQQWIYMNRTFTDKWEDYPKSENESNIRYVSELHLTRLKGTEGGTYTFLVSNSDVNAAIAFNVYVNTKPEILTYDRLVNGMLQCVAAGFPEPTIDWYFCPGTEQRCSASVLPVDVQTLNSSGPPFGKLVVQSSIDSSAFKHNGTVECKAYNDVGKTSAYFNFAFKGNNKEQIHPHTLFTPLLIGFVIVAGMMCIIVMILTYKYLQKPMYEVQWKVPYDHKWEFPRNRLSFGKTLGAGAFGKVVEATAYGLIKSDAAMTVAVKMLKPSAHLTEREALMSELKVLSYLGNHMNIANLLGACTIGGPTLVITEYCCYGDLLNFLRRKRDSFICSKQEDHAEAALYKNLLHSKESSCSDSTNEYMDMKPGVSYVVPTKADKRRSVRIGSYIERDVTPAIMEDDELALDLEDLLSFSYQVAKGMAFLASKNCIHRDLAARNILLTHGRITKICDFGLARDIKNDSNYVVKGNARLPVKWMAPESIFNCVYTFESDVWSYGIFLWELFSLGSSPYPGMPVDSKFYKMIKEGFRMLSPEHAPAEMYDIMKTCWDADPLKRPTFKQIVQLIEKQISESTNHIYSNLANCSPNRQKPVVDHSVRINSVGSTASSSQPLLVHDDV

Structure (SMILES)	IC50 (c-Kit(V654A); Table 1, 200 μM ATP) [nM]	IC50 [1, 2] [nM]	IC50 (c-Kit(V654A); [3]) [nM]	IC50 [1, 3] [nM]
COCCOc1cc2[nH]nc(-c3cc(-c4ccc(C(=O)N5CCO[C@@H](C)C5)cc4)no3)c2cc1F [A189, 5-fluoro-6-(2-methoxyethoxy)-3-(3-{4-[(2S)-2-methylmorpholine-4-carbonyl]phenyl}-1,2-oxazol-5-yl)-1H-indazole]	1.9	48		
COCCOc1cc2[nH]nc(-c3cc(-c4ccc(N5CCOCC5)nc4)no3)c2cc1F [A141, 5-fluoro-6-(2-methoxyethoxy)-3-{3-[6-(morpholin-4-yl)pyridin-3-yl]-1,2-oxazol-5-yl}-1H-indazole]	7.7	220		
COCCOc1cc2[nH]nc(-c3cc(-c4ccc(N5CC[S+]([O-])CC5)cc4)no3)c2cc1F [A127, 4-(4-{5-[5-fluoro-6-(2-methoxyethoxy)-1H-indazol-3-yl]-1,2-oxazol-3-yl}phenyl)-1lambda4-thiomorpholin-1-one]	0.37	24		
COCCOc1cc2[nH]nc(-c3cc(-c4ccc(N5CCCNCC5)cc4)no3)c2cc1F [A42, 3-{3-[4-(1,4-diazepan-1-yl)phenyl]-1,2-oxazol-5-yl}-5-fluoro-6-(2-methoxyethoxy)-1H-indazole]	0.73	170		
COCCOc1cc2[nH]nc(-c3cc(-c4ccc(C(=O)N5CCN(CC6CC6)CC5)cc4)no3)c2cc1F [A179, 3-(3-{4-[4-(cyclopropylmethyl)piperazine-1-carbonyl]phenyl}-1,2-oxazol-5-yl)-5-fluoro-6-(2-methoxyethoxy)-1H-indazole]	0.59	85		
COCCOc1cc2[nH]nc(-c3cc(-c4ccc(C(=O)N5CC(C#N)C5)nc4)no3)c2cc1F [A96, 1-(5-{5-[5-fluoro-6-(2-methoxy-ethoxy)-1H-indazol-3-yl]-isoxazol-3-yl}-pyridine-2-carbonyl)-azetidine-3-carbonitrile]	21	740		
COCCOc1cc2[nH]nc(-c3cc(-c4ccc(C(=O)N5CC(C)(N)C5)cc4)no3)c2cc1F [A56, 1-(4-{5-[5-fluoro-6-(2-methoxyethoxy)-1H-indazol-3-yl]-1,2-oxazol-3-yl}benzoyl)-3-methylazetidin-3-amine]	1.6	170		
COCCOc1cc2[nH]nc(-c3cc(-c4ccc(-n5ccccc5=O)cc4)no3)c2cc1F [A41, 1-(4-{5-[5-Fluoro-6-(2-methoxy-ethoxy)-1H-indazol-3-yl]-isoxazol-3-yl}-phenyl)-1H-pyridin-2-one]	3.1	120		
COCCOc1cc2[nH]nc(-c3cc(-c4ccc(NC(C)=O)cc4)no3)c2cc1F [A18, N-(4-{5-[5-fluoro-6-(2-methoxyethoxy)-1H-indazol-3-yl]-1,2-oxazol-3-yl}phenyl)acetamide]	8.2	160		
COCCOc1cc2[nH]nc(-c3cc(-c4ccc(C(=O)NC5CN(C)C5)cc4)no3)c2cc1F [A73, 4-{5-[5-fluoro-6-(2-methoxyethoxy)-1H-indazol-3-yl]-1,2-oxazol-3-yl}-N-(1-methylazetidin-3-yl)benzamide]	4	430		
COCCOc1cc2[nH]nc(-c3cc(-c4ccc(C(=O)N5CCN(C6CCOCC6)CC5)cc4)no3)c2cc1F [A188, 5-fluoro-6-(2-methoxyethoxy)-3-(3-{4-[4-(oxan-4-yl)piperazine-1-carbonyl]phenyl}-1,2-oxazol-5-yl)-1H-indazole]	0.61	34		
COCCOc1cc2[nH]nc(-c3cc(-c4ccc(S(C)(=O)=O)cc4)no3)c2cc1Cl [A15, 5-chloro-3-[3-(4-methanesulfonylphenyl)-1,2-oxazol-5-yl]-6-(2-methoxyethoxy)-1H-indazole]	5.8	240		
COCCOc1cc2[nH]nc(-c3cc(-c4ccc(C(=O)N5CCN(C)CC5)cc4)on3)c2cc1F [A113, (4-{3-[5-fluoro-6-(2-methoxy-ethoxy)-1H-indazol-3-yl]-isoxazol-5-yl}-phenyl)-(4-methyl-piperazin-1-yl)-methanone]	2.6	82		
O=C(c1ccc(-c2cc(-c3n[nH]c4cc(OCCO)c(F)cc34)on2)cc1)N1CC(N2CCOCC2)C1 [A209, 2-{[5-fluoro-3-(3-{4-[3-(morpholin-4-yl)azetidine-1-carbonyl]phenyl}-1,2-oxazol-5-yl)-1H-indazol-6-yl]oxy}ethan-1-ol]	0.86	120		
COCCOc1cc2[nH]nc(-c3cc(-c4ccc(N5CC[C@H]6[C@@H]5CCN6C)cc4)no3)c2cc1F (relative stereo) [A125, 3-(3-{4-[(cis)-4-methyl-octahydropyrrolo[3,2-b]pyrrol-1-yl]phenyl}-1,2-oxazol-5-yl)-5-fluoro-6-(2-methoxyethoxy)-1H-indazole]	1.9	230		
COCCOc1cc2[nH]nc(-c3cc(-c4ccc(-n5cncn5)cc4)no3)c2cc1Cl [A14, 5-chloro-6-(2-methoxyethoxy)-3-{3-[4-(1H-1,2,4-triazol-1-yl)phenyl]-1,2-oxazol-5-yl}-1H-indazole]	8.8	510		
COCCOc1cc2[nH]nc(-c3cc(-c4ccc(C(=O)N5CC(S(C)(=O)=O)C5)cc4)no3)c2cc1F [A29, 5-fluoro-3-{3-[4-(3-methanesulfonylazetidine-1-carbonyl)phenyl]-1,2-oxazol-5-yl}-6-(2-methoxyethoxy)-1H-indazole]	0.95	390		
COCCOc1cc2[nH]nc(-c3cc(-c4ccc(C(=O)N5CC[C@@H]5C(C)(C)O)cc4)no3)c2cc1F [A58, 2-[(2R)-1-(4-{5-[5-fluoro-6-(2-methoxyethoxy)-1H-indazol-3-yl]-1,2-oxazol-3-yl}benzoyl)azetidin-2-yl]propan-2-ol]	0.78	52		
COCCOc1cc2[nH]nc(-c3cc(-c4ccc(N5CCS(=O)(=O)CC5)nc4)no3)c2cc1F [A131, 4-(5-{5-[5-fluoro-6-(2-methoxyethoxy)-1H-indazol-3-yl]-1,2-oxazol-3-yl}pyridin-2-yl)-1lambda6-thiomorpholine-1,1-dione]	3	65		
COCCOc1cc2[nH]nc(-c3cc(-c4ccc(C(=O)N5CCC[C@H]5CO)cc4)no3)c2cc1F [A51, [(2S)-1-(4-{5-[5-fluoro-6-(2-methoxyethoxy)-1H-indazol-3-yl]-1,2-oxazol-3-yl}benzoyl)pyrrolidin-2-yl]methanol]	0.88	57		
COCCOc1cc2[nH]nc(-c3cc(-c4ccc(C(=O)N5CC(c6cnn(C)c6)C5)cc4)no3)c2cc1F [A218, 5-fluoro-6-(2-methoxyethoxy)-3-(3-{4-[3-(1-methyl-1H-pyrazol-4-yl)azetidine-1-carbonyl]phenyl}-1,2-oxazol-5-yl)-1H-indazole]	0.62	47		
COCCOc1cc2[nH]nc(-c3cc(-c4ccc(C(=O)N5CCC6(CCOCC6)C5)cc4)no3)c2cc1F [A159, 2-(4-{5-[5-fluoro-6-(2-methoxyethoxy)-1H-indazol-3-yl]-1,2-oxazol-3-yl}benzoyl)-8-oxa-2-azaspiro[4.5]decane]	0.29	21		
COCCOc1cc2[nH]nc(-c3cc(-c4ccc(C(=O)N5C[C@H]6CNC[C@H]6C5)cc4)no3)c2cc1F [A223, 3-(3-{4-[(cis)-octahydropyrrolo[3,4-c]pyrrole-2-carbonyl]phenyl}-1,2-oxazol-5-yl)-5-fluoro-6-(2-methoxyethoxy)-1H-indazole]	1.1	380		
COCCOc1cc2[nH]nc(-c3cc(-c4ccc(C(=O)N5CCN(C)CC5)cc4)no3)c2cc1F [A36, 5-fluoro-6-(2-methoxyethoxy)-3-{3-[4-(4-methylpiperazine-1-carbonyl)phenyl]-1,2-oxazol-5-yl}-1H-indazole]	1.2	120		
COCCOc1cc2[nH]nc(-c3cc(-c4ccc(C(=O)N5CC(OC)C5)cc4)no3)c2cc1F [A33, 5-fluoro-3-{3-[4-(3-methoxyazetidine-1-carbonyl)phenyl]-1,2-oxazol-5-yl}-6-(2-methoxyethoxy)-1H-indazole]	1.3	61		
COCCOc1cc2[nH]nc(-c3cn(-c4ccc(C(=O)N5CC(N6CCOCC6)C5)c(C)c4)nn3)c2cc1F [reference compound]			13	870
COCCOc1cc2[nH]nc(-c3cc(-c4ccc(C(=O)N5CCC[C@H]5CO)nc4)no3)c2cc1F [A63, (5-{5-[5-fluoro-6-(2-methoxy-ethoxy)-1H-indazol-3-yl]-isoxazol-3-yl}-pyridin-2-yl)-((S)-2-hydroxymethyl-pyrrolidin-1-yl)-methanone]	5.7	290		
COCCOc1cc2[nH]nc(-c3cc(-c4ccc(C(=O)N5CCN(C)C(=O)C5)cc4)no3)c2cc1F [A116, 4-(4-{5-[5-fluoro-6-(2-methoxyethoxy)-1H-indazol-3-yl]-1,2-oxazol-3-yl}benzoyl)-1-methylpiperazin-2-one]	4.1	120		
COCCOc1cc2[nH]nc(-c3cc(-c4ccc(C(=O)N5Cc6ccncc6C5)cc4)no3)c2cc1F [A183, 5-fluoro-6-(2-methoxyethoxy)-3-[3-(4-{1H,2H,3H-pyrrolo[3,4-c]pyridine-2-carbonyl}phenyl)-1,2-oxazol-5-yl]-1H-indazole]	0.55	18		
COCCOc1cc2[nH]nc(-c3cc(-c4ccc(N5CC[C@@H]6[C@H]5CCCN6C)cc4)no3)c2cc1F (relative stereo) [A124, 3-(3-{4-[(cis)-4-methyl-octahydro-1H-pyrrolo[3,2-b]pyridin-1-yl]phenyl}-1,2-oxazol-5-yl)-5-fluoro-6-(2-methoxyethoxy)-1H-indazole]	0.35	85		
